# Experimental data taken from patent US20110244078A1 (priority 2010, published 2011).
# Experiment: Moisture sensitivity: degradation of the isothiocyanate suspended in aqueous phosphate buffer
# Assay type: physicochemical
# Conditions: WMEO (about 25% 4-HBITC) suspended in aqueous phosphate buffer, pH about 3.6, about 20-23° C.
# Description: As used herein, the term “moisture sensitive” means that the isothiocyanate compound degrades in the presence of water. This degradation proceeds via a hydrolysis reaction, thereby leading to a reduction in level of the active isothiocyanate antimicrobial agent with time of storage in the presence of water. The method for determining moisture sensitivity is set forth in the Test Method section below. […]
# Moisture sensitive isothiocyanate compounds are identified by suspending the isothiocyanate containing material in an aqueous phosphate buffer (pH of about 3.6) at room temperature. […] The extraction procedure is repeated after 24 hours and the level of residual isothiocyanate compound is measured by supercritical fluid chromatography. […]
# A white mustard essential oil is generated by adding water to ground white mustard seeds and then extracting the essential oil with supercritical carbon dioxide according to the known processes described in the art. […] The essential oil is suspended in an aqueous phosphate buffer (pH of about 3.6) at room temperature (about 20-23° C.) and the level of 4-hydroxybenzyl isothiocyanate measured at time zero and after about 24 hours of storage as described in the preceding section. […]
structure (smiles),measurement,value
Oc1ccc(CN=C=S)cc1 [4-hydroxybenzyl isothiocyanate],percent reduction in level of 4-hydroxybenzyl isothiocyanate after 24 hours,about 72%
